What is called IC50 is the concentration that gives 50% inhibition. Read a low IC50 as higher potency.

IC50 data for ten compounds are collected here from patent EP0887077A1, “Use of azulene derivatives as metalloprotease inhibitors” (BOEHRINGER MANNHEIM GMBH, priority 1997, dated 1998).

Each structure is given as a SMILES string.

The assay deals with TNF-α. Put plainly: Inhibition of LPS-induced TNFα release from peripheral human leukocytes, TNFα-specific enzyme immunoassay of culture supernatant. The following applies: Leukocyte, Periphere humane Leukozyten, LPS über 22 Std., TNFα im Kulturüberstand. Type of assay: cell-based. From the text: Periphere humane Leukozyten werden mit LPS über 22 Std. inkubiert. Der Kultutüberstand wird mit einem TNFα spezifischen Enzym-Immuno-Assay untersucht. Durch Vergleich der für die Messproben erhaltenen TNFα-Konzentrationen mit den ungehemmten Proben wird die prozentuale Hemmung für die einzelne Probe berechnet. Aus der Konzentrationsabhängigkeit der Hemmwerte werden rechnerisch die IC50-Werte bestimmt. […]
Die IC50-Werte der oben genannten Substanzen, die Gegenstand dieses Patentes sind, gegen TNF-α finden sich in der folgenden Tabelle;

`CCOC(=O)Cc1ccc2c(C(=O)OCC)c(N)c(C(=O)OCC)c-2cc1` [Verbindung 1, 2-Amino-6-ethoxycarbonylmethyl-azulen-1,3-dicarbonsäurediethylester] came in with an IC50 of 200 nM.

Turning to `CCOC(=O)Cc1ccc2c(C(=O)OCC)c(N(C(C)=O)C(C)=O)c(C(=O)OCC)c-2cc1` [Verbindung 2, 2-Diacetylamino-6-ethoxycarbonylmethyl-azulen-1,3-dicarbonsäurediethylester], the IC50 is 50 nM.

In turn, `CCOC(=O)c1c2ccc(C(C(=O)OCC)C(=O)OCC)ccc-2c(C(=O)OCC)c1N(C(C)=O)C(C)=O` [Verbindung 3, 6-(Bis-ethoxycarbonylmethyl)-2-diacetylamino-azulen-1,3-dicarbonsäurediethylester] returned an IC50 of 180 nM.

Turning to `CCOC(=O)c1c2ccc(Br)ccc-2c(C(=O)OCC)c1N(C(C)=O)C(C)=O` [Verbindung 4, 6-Bromo-2-diacetylamino-azulen-1,3-dicarbonsäurediethylester], half-maximal inhibition (IC50) required 1300 nM.

`CCOC(=O)c1c2ccc(Br)ccc-2c(C(=O)OCC)c1NC(C)=O` [Verbindung 5, 2-Acetylamino-6-bromo-azulen-1,3-dicarbonsäurediethylester] returned an IC50 of 1100 nM.

Take `CCOC(=O)Cc1ccc2c(C(=O)OCC)c(OCC)c(C(=O)OCC)c-2cc1` [Verbindung 6, 2-Ethoxy-6-ethoxycarbonylmethyl-azulen-1,3-dicarbonsäurediethylester]: the IC50 came to 11900 nM.

`CCOC(=O)c1c2cccccc-2c(C(=O)OCC)c1N` [Verbindung 7, 2-Amino-azulen-1,3-dicarbonsäurediethylester] gave an IC50 of 25400 nM.

The compound `CCOC(=O)c1c2ccc(S)ccc-2c(C(=O)OCC)c1N` [Verbindung 8, 2-Amino-6-mercapto-azulen-1,3-dicarbonsäurediethylester] showed an IC50 of 26000 nM.

`CCOC(=O)C(Cc1ccc2c(C(=O)OCC)c(Cl)c(C(=O)OCC)c-2cc1)=NO` [Verbindung 9, 2-Chloro-6-(2-ethoxycarbonyl-2-hydroxyimino-ethyl)-azulen-1,3-dicarbonsäurediethylester] yielded an IC50 of 2700 nM.

`Cc1cc(C=CC=O)c2c(C)ccc(C(C)C)cc1-2` [Verbindung 10, 3-(5-isopropyl-3,8-dimethyl-azulen-1-yl)-propenal] yielded an IC50 of 10700 nM.
